Measured values from BindingDB's records for doi:10.7270/Q2CV4GM1 (D3R/Abbott, 2015).
Values joined by “and” are separate entries in the source; they are usually repeats but may differ in a detail not shown here. Identical values can stand only once.

Target: T1, Tyrosine-protein kinase SYK [355-635] (Homo sapiens, UniProt P43405)
T1 construct: 355-635
Experiment: SYK assay_HTRF

| Compound | IC50 |
| --- | --- |
| O=C(Cc1ccc(Nc2nccc(Nc3cccc4[nH]ncc34)n2)cc1)Nc1cccnc1 [GTC000219A] | 0.543 µM |
| c1cc(Nc2ccnc(Nc3ccc4ncsc4c3)n2)c2cn[nH]c2c1 [GTC000122A] | 0.04 µM and 0.0535 µM |
| O=C1OCc2cc(Nc3nccc(Nc4cccc5[nH]ncc45)n3)ccc21 [GTC000152A] | 0.0685 µM and 0.0885 µM |
| CCN(c1nc(Nc2ccc(C(=O)NC)cc2)ncc1F)c1cccc2[nH]ncc12 [GTC000271A] | 0.00662 µM |
| Cn1ncc2cc(Nc3nccc(N(CCCCO)c4cccc5[nH]ncc45)n3)ccc21 [GTC000287A] | 0.00805 µM |
| Cc1ncoc1-c1cccc(Nc2nccc(N(CCCO)c3cccc4[nH]ncc34)n2)c1 [GTC000224A] | 0.0111 µM |
| Cc1nc(NC(=O)Cc2ccc(Nc3nccc(Nc4cccc5[nH]ncc45)n3)cc2)sc1C [GTC000215A] | 0.676 µM |
| O=C1CCCN1CCCNS(=O)(=O)Cc1ccc(Nc2nccc(Nc3cccc4[nH]ncc34)n2)cc1 [GTC000202A] | 0.706 µM |
| COCCN(c1ccnc(Nc2cccc(S(N)(=O)=O)c2)n1)c1cccc2[nH]ncc12 [GTC000335A] | 0.0224 µM |
| O=C1Cc2cc(Nc3nccc(Nc4cccc5[nH]ncc45)n3)ccc2N1 [GTC000107A] | 0.18 µM and 0.071 µM and 0.0807 µM and 0.115 µM |
| NS(=O)(=O)c1ccc(Nc2nccc(Nc3cccc4[nH]ncc34)n2)cc1 [GTC000181A] | 0.0655 µM and 0.211 µM and 0.194 µM and 0.162 µM and 0.0729 µM |
| CS(=O)(=O)NCCCN(c1ccnc(Nc2ccc3[nH]c(=O)[nH]c3c2)n1)c1cccc2[nH]ncc12 [GTC000239A] | 0.00316 µM |
| O=C(O)CCCCN(c1ccnc(Nc2ccc3c(c2)S(=O)(=O)NC3)n1)c1cccc2[nH]ncc12 [GTC000229A] | 0.00141 µM and 0.00119 µM and 0.00247 µM |
| CS(=O)(=O)Nc1ccc(Nc2nccc(Nc3cccc4[nH]ncc34)n2)cc1 [GTC000217A] | 0.414 µM |
| CCN(c1nc(Nc2cccc(O)c2)ncc1F)c1cccc2[nH]ncc12 [GTC000282A] | 0.00794 µM |
| O=C(COc1ccc(Nc2nccc(Nc3cccc4[nH]ncc34)n2)cc1)NCCCN1CCCC1=O [GTC000204A] | 2.07 µM |
| COC(=O)c1cccc(Nc2nccc(Nc3cccc4[nH]ncc34)n2)c1 [GTC000127B] | 0.25 µM and 0.0585 µM and 0.127 µM |
| O=C1CCc2ccc(Nc3nccc(Nc4cccc5[nH]ncc45)n3)cc21 [GTC000116A] | 0.195 µM and 0.146 µM |
| O=C1Nc2ccc(Nc3nccc(N(CCO)c4cccc5[nH]ncc45)n3)cc2CO1 [GTC000258A] | 0.005 µM |
| O=C(COc1ccc(Nc2nccc(Nc3cccc4[nH]ncc34)n2)cc1)NCCCO [GTC000192A] | 0.611 µM |

| Compound | IC50 |
| --- | --- |
| CCN(c1nc(Nc2ccc3c(c2)CCN3C(=O)C(F)(F)F)ncc1F)c1cccc2[nH]ncc12 [GTC000354A] | 0.059 µM |
| NS(=O)(=O)c1cccc(Nc2nccc(Nc3cccc4[nH]ncc34)n2)c1 [3-{[4-(1H-indazol-4-ylamino)pyrimidin-2-yl]amino}benzene-1-sulfonamide] | 0.018 µM and 0.0475 µM |
| CCN(c1nc(Nc2cccc(-c3cccnc3)c2)ncc1F)c1cccc2[nH]ncc12 [GTC000340A] | 0.0293 µM |
| Cc1nc(NS(=O)(=O)Cc2ccc(Nc3nccc(Nc4cccc5[nH]ncc45)n3)cc2)sc1C [GTC000201A] | 1.1 µM |
| CN(c1nc(Nc2cccc(S(C)(=O)=O)c2)ncc1F)c1cccc2[nH]ncc12 [GTC000359A] | 0.0873 µM |
| CS(=O)(=O)Cc1ccc(Nc2nccc(Nc3cccc4[nH]ncc34)n2)cc1 [GTC000207A] | 0.232 µM |
| O=C(O)CCCN(c1ccnc(Nc2ccc3c(c2)S(=O)(=O)NC3)n1)c1cccc2[nH]ncc12 [GTC000245A] | 0.00388 µM |
| OCCCN(c1nc(Nc2ccc3nn[nH]c3c2)ncc1F)c1cccc2[nH]ncc12 [GTC000295A] | 0.00953 µM |
| O=C(Cc1ccc(Nc2nccc(Nc3cccc4[nH]ncc34)n2)cc1)Nc1cccc(C(F)(F)F)c1 [GTC000212A] | 1.04 µM |
| CS(=O)(=O)NCCCCCN(c1ccnc(Nc2ccc3[nH]c(=O)[nH]c3c2)n1)c1cccc2[nH]ncc12 [GTC000308A] | 0.0177 µM and 0.0154 µM |
| O=S1(=O)CCc2ccc(Nc3ncc(F)c(N(CCCO)c4cccc5[nH]ncc45)n3)cc21 [GTC000251A] | 0.00611 µM and 0.00406 µM and 0.00367 µM |
| CCN(c1nc(Nc2ccc3cnn(CCCCO)c3c2)ncc1F)c1cccc2[nH]ncc12 [GTC000299A] | 0.0139 µM |
| CC(C)(C)OC(=O)COc1ccc(Nc2nccc(Nc3cccc4[nH]ncc34)n2)cc1 [GTC000194A] | 1.18 µM and 1.96 µM and 1.64 µM |
| CCN(c1nc(Nc2ccc3c(C)nn(CCCO)c3c2)ncc1F)c1cccc2[nH]ncc12 [GTC000242A] | 0.00361 µM and 0.00962 µM and 0.00158 µM and 0.00277 µM and 0.00388 µM |
| CCN(c1nc(Nc2ccc3c(c2)CC(=O)N3)ncc1F)c1cccc2[nH]ncc12 [GTC000272A] | 0.00695 µM |
| NS(=O)(=O)c1cccc(Nc2nccc(N(CC(F)(F)F)c3cccc4[nH]ncc34)n2)c1 [GTC000365A] | 0.0982 µM |
| Cn1ncc2ccc(Nc3nccc(N(CCCCO)c4cccc5[nH]ncc45)n3)cc21 [GTC000274A] | 0.00589 µM |
| O=C1CCCc2cc(Nc3nccc(Nc4cccc5[nH]ncc45)n3)ccc21 [GTC000117A] | 0.0912 µM |
| O=C(O)Cc1cccc(Nc2nccc(Nc3cccc4[nH]ncc34)n2)c1 [GTC000125A] | 0.118 µM and 0.493 µM |
| c1cc(Nc2ccnc(Nc3ccc4c(c3)CCC4)n2)c2cn[nH]c2c1 [GTC000142A] | 0.114 µM and 0.255 µM |

| Compound | IC50 |
| --- | --- |
| CNC(=O)Cc1ccc(Nc2nccc(Nc3cccc4[nH]ncc34)n2)cc1 [GTC000218A] | 1.26 µM |
| COCCCN(c1nc(Nc2ccc3cnn(C)c3c2)ncc1F)c1cccc2[nH]ncc12 [GTC000298A] | 0.0107 µM and 0.0156 µM and 0.0151 µM |
| NCCCCCN(c1ccnc(Nc2ccc3[nH]c(=O)[nH]c3c2)n1)c1cccc2[nH]ncc12 [GTC000269A] | 0.00697 µM |
| CCN(c1nc(Nc2ccc3cnn(C)c3c2)ncc1Cl)c1cccc2[nH]ncc12 [GTC000334A] | 0.024 µM |
| CN(c1nc(Nc2cccc(S(N)(=O)=O)c2)ncc1F)c1cccc2[nH]ncc12 [GTC000337A] | 0.0228 µM |
| O=c1[nH]c2ccc(Nc3nccc(N(CCCO)c4cccc5[nH]ncc45)n3)cc2[nH]1 [GTC000256A] | 0.00501 µM |
| NC(=O)c1cccc(Nc2nccc(N(CCCO)c3cccc4[nH]ncc34)n2)c1 [GTC000309A] | 0.0177 µM |
| CCN(c1nc(Nc2cc(S(=O)(=O)NCC3CCCO3)ccc2OC)ncc1F)c1cccc2[nH]ncc12 (centres undefined) [GTC000373A] | 0.624 µM |
| CNS(=O)(=O)Cc1ccc(Nc2nccc(Nc3cccc4[nH]ncc34)n2)cc1 [GTC000195A] | 0.426 µM |
| O=C1Cc2ccc(Nc3nccc(Nc4cccc5[nH]ncc45)n3)cc2N1 [GTC000154A] | 0.0223 µM and 0.0415 µM |
| CS(=O)(=O)NCCCCN(c1ccnc(Nc2ccc3[nH]c(=O)[nH]c3c2)n1)c1cccc2[nH]ncc12 [GTC000288A] | 0.0198 µM and 0.00542 µM |
| O=C1NS(=O)(=O)c2cc(Nc3nccc(Nc4cccc5[nH]ncc45)n3)ccc21 [GTC000133A] | 0.0173 µM and 0.0446 µM |
| CCN(c1nc(Nc2ccc3c(c2)S(=O)(=O)N(CC2CC2)C3)ncc1F)c1cccc2[nH]ncc12 [GTC000330A] | 0.0362 µM and 0.0194 µM |
| CCNC(=O)c1ccc(Nc2ncc(F)c(N(CC)c3cccc4[nH]ncc34)n2)cc1 [GTC000312A] | 0.0161 µM |
| CCN(CC)CCCN(c1ccnc(Nc2ccc3c(c2)CNS3(=O)=O)n1)c1cccc2[nH]ncc12 [GTC000368A] | 0.229 µM and 0.0883 µM |
| FC(F)(F)c1ccc(Nc2nccc(Nc3cccc4[nH]ncc34)n2)cc1 [GTC000136A] | 0.206 µM |
| O=C(Nc1ccccc1)c1ccc(Nc2nccc(Nc3cccc4[nH]ncc34)n2)cc1 [GTC000182A] | 0.433 µM and 0.398 µM |
| CNS(=O)(=O)c1ccc(Nc2nccc(Nc3cccc4[nH]ncc34)n2)cc1 [GTC000184A] | 0.493 µM and 0.443 µM and 0.161 µM |
| CCN(c1nc(Nc2ccc3c(c2)S(=O)(=O)N(C)C3)ncc1F)c1cccc2[nH]ncc12 [GTC000289A] | 0.0137 µM and 0.00532 µM and 0.0163 µM |
